Measured values reported in ChEMBL document CHEMBL1157539, “Thousands of chemical starting points for antimalarial lead identification” (Nature, 2010).
Where “and” joins values, the source holds several entries; their conditions need not be identical. Equal values may be shown once.

system: Plasmodium falciparum; assay: GSK_TCMDC: Inhibition of Plasmodium falciparum 3D7 in whole erythrocytes, using parasite LDH activity as an index of growth.; assay type: functional, organism-based; conditions: not given

| SMILES | XC50 |
| --- | --- |
| O=C(CCc1ccc(Cl)cc1Cl)NC1CCC(CN2CCC(c3c[nH]c4ccccc34)CC2)CC1 (configuration not stated) | 216 nM and 903 nM |
| O=C(C=C1c2ccccc2-c2ccccc21)NC1CCC(CN2CCC(c3c[nH]c4ccccc34)CC2)CC1 (configuration not stated) | 697 nM |

same assay, conditions: Plasmodium falciparum, 3D7

| SMILES | XC50 [nM] |
| --- | --- |
| O=C(NC1CCC(CN2CCC(c3c[nH]c4ccccc34)CC2)CC1)c1csc(-c2cccc(Cl)c2Cl)n1 (configuration not stated) | 1730 |
| COc1ccccc1CC(C)NCC(O)c1cccc(Cl)c1 (configuration not stated) | 811 |
| Cc1cccc2nc(-c3ccc(-c4cccc(NC(=O)COc5ccccc5C(N)=O)c4)s3)[nH]c12 | 734 |
| CC(=O)Oc1cc(C)ccc1C1CCN(CCCCNC(=O)c2ccc(-c3ccc(C(F)(F)F)cc3)cc2)CC1 | 646 |
| Nc1nc(N)c2c(ccc3c2ccn3CCCF)n1 | 149 |
| Cc1ccc2[nH]cc(/C=C/C(=O)NC3CCC(CCN4CCc5ccc(C#N)cc5CC4)CC3)c2c1 (configuration not stated) | 916 |
| COc1cccc(C(=O)C2CC2CN2CC=C(c3c(C)[nH]c4ccccc34)CC2)c1 (configuration not stated) | 710 |
| CCCCCCCN1CCC(NC(=O)Nc2ccnc3ccc(OC)cc23)C(CO)C1 (configuration not stated) | 176 |
| CN1CCc2cc(I)c(O)cc2C1Cc1ccccc1Cl (configuration not stated) | 788 |
| Cc1cccc2nc(-c3ccc(-c4cccc(CN5CCN(CC6CCCN(C)C6)CC5)c4)s3)[nH]c12 (configuration not stated) | 121 |
| COc1cc(Nc2nccc(-c3c(-c4cccc(NC(=O)c5c(F)cccc5F)c4)nn4ccccc34)n2)cc(OC)c1OC | 77.3 |
| FC(F)(F)c1cnc(Sc2nnc(-c3ccncc3)o2)c(Cl)c1 | 272 |
| CS(=O)(=O)c1ccc(CCNCc2ccc(-c3ccc(CN(C(=O)C4CC(=O)c5ccccc54)C4Cc5ccccc5C4)cc3)nc2)cc1 (configuration not stated) | 858 |
| CC[C@H]1CN2CCc3cc(OC)c(OC)cc3[C@@H]2C[C@@H]1CC1=NCCc2c1[nH]c1ccc(OCc3ccccc3)cc21 | 772 |
| CC(C)(C)OC(=O)c1c(NC(=O)/C=C/c2ccc(O)c(O)c2)sc2c1CCCC2 | 819 |
| CCCC(C)Nc1nc(C)cc(N[C@@H](Cc2ccccc2)C(=O)Nc2ccc(OC)cc2)n1 (some centres not stated) | 1120 |
| O=c1cc(NCCCNCc2cccc(Oc3ccccc3)c2)[nH]c2ccccc12 | 946 |
| O=S(=O)(NCCN1CCCC1)c1cccc(-c2ccccc2CNC2Cc3ccccc3C2)c1 | 738 |
| Cc1cc(C)c(O)c(-c2cc(C(=O)Nc3ccc(S(=O)(=O)N4CC(C)OC(C)C4)cc3)[nH]n2)c1 (configuration not stated) | 664 |
| CCCN1CCN(CC(O)CNC(=O)Nc2ccc(Cl)cc2)CC1 (configuration not stated) | 96.9 |
| Fc1ccc(NC(S)=NN=Cc2ccccn2)cc1 | 775 |
| COc1ccc2c(O)c(Br)c(C)nc2c1 | 192 |
| COc1ccc2ccccc2c1C=NNc1ccnc2cc(Cl)ccc12 | 615 |
| CCCNCc1ccc(-c2ccc(CN(CCOC)C(=O)c3ccc([N+](=O)[O-])c(C)c3)cc2)nc1 | 868 |

| SMILES | XC50 [nM] |
| --- | --- |
| Cc1cccc2nc(-c3ccc(-c4ccc(NC(=O)Nc5ccc(Cl)c(Cl)c5)cc4)s3)[nH]c12 | 176 |
| CCOC(=O)c1ccc(NC(=O)N(Cc2ccc(-c3ccc(CN4CCNCC4)cc3)cc2)Cc2cccnc2)cc1 | 926 |
| O=C(Cc1c[nH]cn1)Nc1ccc(-c2cccc(-c3nc4cc(F)ccc4[nH]3)c2)cc1 | 797 |
| CCN1CCN(c2ccc(Nc3ccnc4ccc(Br)cc34)cc2)CC1 | 300 |
| COc1ccc(CNC2CCCC2)cc1-c1ccc(S(=O)(=O)NCCN2CCCC2)s1 | 798 |
| COc1ccc2nc(N(CCCn3ccnc3)C(=O)C=Cc3cccs3)sc2c1 | 1050 |
| Cc1cccc2nc(-c3ccc(-c4cccc(NC(=O)c5cnccc5C(F)(F)F)c4)cc3)[nH]c12 | 998 |
| Cc1c(C)c2c(c(C)c1O)CC[C@@](C)(C(=O)N1CCC(CN3CCC(c4c[nH]c5ccccc45)CC3)CC1)O2 | 657 |
| CCN(CC)CCON=Cc1cc(C)c2[nH]c3ccc(OCc4ccccc4)cc3c2c1C | 972 |
| COCCN1CCC(CNCC(C)(C)c2nc(-c3ccc(Cl)c(O)c3)c(-c3ccncc3)[nH]2)CC1 | 753 |
| O=C(N[C@H]1CCN(CCc2ccc(O[C@H]3CCNC3)c(F)c2)C1)c1ccc(Cl)c(Cl)c1 | 1190 |
| CC[C@H](C)CNC(=O)c1cccc(-c2ccc(CN3CCC(N4CCCC4)CC3)cc2)n1 | 788 |
| Brc1ccsc1-c1nc(NCCC(c2ccccc2)c2ccccc2)no1 | 1080 |
| CCN(CC)CCNc1ccnc2[nH]c3ccc(C)cc3c12 | 669 |
| Oc1nc(Cc2ccccc2)nc2ccc(Cl)cc12 | 879 |
| O=C(Nc1cccc(-c2ccc(CN3CCNCC3)cc2)c1)c1cccc(Cl)c1 | 1250 |
| CCNc1cc(C(=O)N[C@@H](Cc2ccccc2)[C@H](O)CNCc2ccc3c(c2)OCCO3)cc(N2CCCCS2(=O)=O)c1 | 1350 |
| COC(=O)c1ccc2c(c1)nc(Nc1cccc(F)c1)n2CC(O)c1ccccn1 (configuration not stated) | 728 |
| COc1ccc2nc(C)cc(Nc3ccc(Cl)c(Cl)c3)c2c1 | 441 |
| CCCCCCCN(Cc1ccc(OC(C)(C)C(=O)OCC)cc1)C(=O)Nc1ccccc1OC(F)(F)F | 966 |
| Cc1cccc2nc(-c3ccc(-c4ccc(NC(=O)NCc5cccc(F)c5)cc4)cc3)[nH]c12 | 1300 |
| Cc1noc(-c2ccc3c(c2)CCN(CCC2CCC(NC(=O)/C=C/c4ccc(F)cc4)CC2)CC3)n1 (configuration not stated) | 1030 |
| Cc1cc(-c2cccc(CNC3CCN(C)CC3)c2)ccc1S(=O)(=O)NCc1ccccc1 | 819 |
| Cc1cccc2nc(-c3cccc(-c4ccc(NC(=O)Cc5ccon5)cc4)c3)[nH]c12 | 1090 |

| SMILES | XC50 [nM] |
| --- | --- |
| Cc1cc(Oc2cc(NC(=O)c3sc4ncn(Cc5ccccc5F)c(=O)c4c3C)cc([N+](=O)[O-])c2)ccc1Cl | 1150 |
| COc1ccc2nccc(N3CCC(CCNCc4ccc5c(n4)NC(=O)CS5)CC3)c2c1 | 209 |
| CC(=O)c1ccc(-c2cccc3c(CC(=O)Nc4ccc5nccc(N6CCN(C)CC6)c5c4)cccc23)cc1 | 498 |
| CC1(C)CCC(C)(C)c2c1ccc(C1CCN(CCCCNC(=O)c3ccc(-c4ccc(C#N)cc4)cc3)CC1)c2O | 226 |
| CCN(C(=O)CSc1cc(C)c2cc(C)cc(C)c2n1)C1CCS(=O)(=O)C1 (configuration not stated) | 667 |
| CCn1c(Sc2ccc([N+](=O)[O-])c(C#N)c2)nnc1-c1ccc(Cl)cc1 | 1000 |
| Cc1cc(C(=O)CN2C(=O)NC3(CCOc4ccccc43)C2=O)c(C)n1Cc1ccco1 (configuration not stated) | 605 |
| COc1cccc(CN2CCCN(Cc3cccc(NC(=O)c4ccc(Cl)c(Cl)c4)c3)CC2)c1 | 1460 |
| CN1CCCc2ccc(NC(=O)Nc3ccc(-c4ccccc4)cc3)cc2C1 | 380 |
| Fc1ccc(COc2ccc(Nc3ncnc4ccc(I)cc34)cc2Cl)cc1 | 1180 |
| O=C(/C=C/c1ccc(Cl)c(Cl)c1)NC1C2CCC1CC(CN1CCC(c3c[nH]c4ccccc34)CC1)C2 (configuration not stated) | 203 |
| Cc1cc(F)ccc1Nc1nc(N(C)c2ccccc2)c2cc(OCCCN(C)C)ccc2n1 | 717 |
| N#CC(CC(=O)c1ccc(Cl)cc1)c1cccc(F)c1 (configuration not stated) | 854 |
| CCOc1cc(C)c(C2CCN(CCCCNC(=O)c3ccc(NC(=O)c4ccc(Cl)cc4)cc3)CC2)cc1C | 739 |
| CC1CCN(C(=O)[C@H](Cc2c[nH]c3ccccc23)NS(=O)(=O)c2ccc(Cl)cc2)CC1 | 667 |
| CC(C)Cn1cc(C2CCN(CCN3CCC(CNC(=O)c4ccc(-c5ccc(C(F)(F)F)cc5)cc4)CC3)CC2)c2ccccc21 | 753 |
| CC1CCC(C(C)C)C(OC(=O)CSc2nnc3c(n2)[nH]c2ccccc23)C1 (configuration not stated) | 931 |
| CNCCCNCc1ccc(-c2ccc(F)c(Cl)c2)o1 | 752 |
| Cc1nc2c(c(O)c1Cl)-c1ccc(Oc3cccc(C(F)(F)F)c3)cc1C2=O | 37.9 |
| COc1ccc2ncc(F)c([C@H](O)CN3CCC(NCc4ccc5c(c4)NC(=O)CS5)CC3)c2c1 | 185 |
| O=C(Nc1cc(F)cc(F)c1)N1CCOC(CCN2CCC(c3ccccc3)CC2)(c2ccc(Cl)c(Cl)c2)C1 (configuration not stated) | 466 |
| CC[C@H](C)CNC(=O)c1cncc(-c2ccc(CNCC3CNCCCO3)cc2)c1 (some centres not stated) | 1020 |
| CCOC(=O)c1ccc(NC(=O)Nc2ccc(-c3cccc(-c4nc5cc(F)ccc5[nH]4)c3)cc2)cc1 | 122 |
| CC(C)c1ccc(NC(=O)c2ccc(CN3CCCN(Cc4cccc(O)c4)CC3)cc2)cc1 | 679 |

| SMILES | XC50 [nM] |
| --- | --- |
| CCCN1CC[C@@H](CCCc2ccnc3ccc(O)cc23)[C@@H](CC)C1 | 889 |
| Clc1cc(Cl)c2c(c1)C(NCCCNc1nc3ccccc3[nH]1)CCO2 (configuration not stated) | 325 |
| Cc1cccc2[nH]c(-c3cc(-c4cn[nH]c4)cnc3N)nc12 | 221 |
| O=C(Nc1cccc(CN2CCN(C(=O)c3cccc(Cl)c3)CC2)c1)c1ccco1 | 438 |
| CC(C)C[C@H](NC(=O)c1ccc(OCCN2CCOCC2)cc1)C(=O)N[C@H](/C=N/NC(=O)OC(C)(C)C)CCc1ccccc1 | 162 |
| Cc1nc2nc(N)nc(N)c2c(C)c1Cc1cccs1 | 777 |
| CCOC(=O)N1CCN(CCCCCNc2cc(C)nc(NC(=N)Nc3ccc(Cl)cc3)n2)CC1 | 149 |
| COc1ccc2nccc([C@@H](O)CN3CCC(NCCOc4ccccc4C#N)CC3)c2c1 | 398 |
| O=C(/C=C/c1ccc(Cl)c(Cl)c1)NCCCCCCN1CCCN(C(=O)Nc2ccc(Cl)c(Cl)c2)CC1 | 666 |
| O=C(NCCc1ccccc1)N(Cc1ccccc1-c1ccc(CNC2CCCC2)cc1)C1CCN(Cc2ccccc2)CC1 | 1130 |
| CCn1c(-c2nonc2N)nc2c(-c3ccccc3)ncc(OCCCCNCCc3ncc[nH]3)c21 | 852 |
| O=C(Nc1ccsc1C(=O)NC1CCCCC1)c1ccc(F)cc1 | 1210 |
| O=C(Nc1ccc(Cl)cc1)c1ccc(CN2CCCN(Cc3ccc(F)cc3)CC2)cc1 | 966 |
| O=C1SC(=Cc2ccc(O)c(O)c2)C(=O)N1c1ccccc1 | 1200 |
| O=C1CCCN1CCCNCc1ccc(-c2ccc(-c3nc4cc(F)ccc4[nH]3)s2)cc1 | 896 |
| CC[C@H]1CN2CC[C@@H]1C[C@H]2[C@H](O)c1cc(N2CCSCC2)nc2ccc(OC)cc12 | 199 |
| O=C(/C=C/c1ccc(Cl)c(Cl)c1)NCCCCCN1CCCN(C(=O)Nc2cc(Cl)cc(Cl)c2)CC1 | 791 |
| O=C(C=C1c2ccccc2-c2ccccc21)NC1CCC(CN2CCC(c3c[nH]c4ccccc34)CC2)CC1 (configuration not stated) | 795 |
| CC(CN1CCN(CC(c2ccc(F)cc2)N2CCN(C)CC2)CC1)C(=O)c1ccc(O)cc1 (configuration not stated) | 672 |
| NC1=NC(c2ccccc2)N(c2ccc(Cl)c(Cl)c2)C(N)=N1 (configuration not stated) | 14.6 |
| CC(C)Cn1c(Sc2ccc(C#N)c([N+](=O)[O-])c2)nnc1-c1cccc(Cl)c1 | 301 |
| Cc1csc2nc(-c3ccccn3)nc(Nc3ccc4ncsc4c3)c12 | 1110 |
| CC(C)N1CCN(CCCCNc2c3ccccc3nc3ccccc23)CC1 | 540 |
